Values joined by “and” are separate entries in the source; they are usually repeats but may differ in a detail not shown here. Equal entries are not always repeated. Where two headings read alike, the source gives them in different places.
Columns and labels:
[1] = system: p-eIF4E in NIH-3T3 cells expressing TPM3-NTRK1; experiment: Immunoblot of p-eIF4E in NIH-3T3 TPM3-NTRK1 cells; format: cell-based
Procedure: 350 μg/ml hygromycin selection for 14 days. Each stable CO). Percent Ki67+ area was calculated as the percentage
wild-type or mutated NTRK1. Control vector containing positive. […]
(§1) 20 μg NTRK1 fusion confirmation
T20 (ThermoScientific, Rockford, IL) for 30 minutes. MiniPrep cat# R2051 following manufacturer ’s protocol.
A forward primer upstream of the
(§2) (1:2000) (Sigma-Aldrich), HRP-conjugated mouse or primers. The primer sequences are TPM3_Ex3B_F5:
(§3) Chalfont, UK). All western blots were developed using Ex12_R5: […]. PCR was […]

[2] = system: p-ERK (MAPK 42/44) in KM-12 cells; experiment: Western blot of phosphorylated MAPK 42/44 (ERK) in KM-12 cells; format: cell-based
Procedure: as §1
(§4) T20 (ThermoScientific, Rockford, IL) for 30 minutes. MiniPrep cat# R2051 following manufacturer ’s protocol. […]
as §2, §3

[3] = system: EL1989 PDX tumors (TPM3-NTRK1); experiment: Colorectal carcinoma PDX model EL1989; details: mouse, in vivo
[4] = system: KM-12 xenograft tumors (TPM3-NTRK1); experiment: KM-12 xenograft tumor model; format: in vivo, athymic nude mice
KM-12 cells [5] = experiment: KM-12 anchorage independent growth in alginate; format: cell-based; details: Homo sapiens, KM12, 72 h, read-out: IC50 KM-12 anchorage independent growth
KM-12 cells [6] = experiment: KM-12 anchorage dependent cell proliferation (CellTiter-Glo); format: cell-based; details: Homo sapiens, KM12, 72 h, read-out: IC50 KM-12 cell proliferation (anchorage dependent)
MO-91 cells (ETV6-NTRK3) = details: read-out: IC50 proliferation of MO-91 cells; in vitro; cited from earlier work
MO-91 xenograft tumors = system: MO-91 xenograft tumors; design: method as in PMID 23811600; details: 50 mg/kg once daily; cited from earlier work
[7] = target: T1, mutant G595R TPM3-NTRK1 in NIH-3T3 cells (Homo sapiens, UniProt P04629+P06753, G595R); experiment: Immunoblot of p-NTRK1 in NIH-3T3 cells, G595R TPM3-NTRK1; format: cell-based; details: 0.2 μM and 0.5 μM, 4 hours
T1 construct: expressed in transfected cells

[8] = system: MKNK1/2 (p-eIF4E S209) in KM-12 cells; experiment: Western blot of p-eIF4E S209 in KM-12 cells; format: cell-based
Procedure: as §1, §4, §2, §3

[9] = target: T2, wild-type TPM3-NTRK1 in NIH-3T3 cells (Homo sapiens, UniProt P04629+P06753); experiment: Immunoblot of p-NTRK1 in NIH-3T3 cells, wild-type TPM3-NTRK1; format: cell-based; details: 0.2 μM and 0.5 μM, 4 hours
T2 construct: expressed in transfected cells
T2 sequence (P06753+P04629 fused): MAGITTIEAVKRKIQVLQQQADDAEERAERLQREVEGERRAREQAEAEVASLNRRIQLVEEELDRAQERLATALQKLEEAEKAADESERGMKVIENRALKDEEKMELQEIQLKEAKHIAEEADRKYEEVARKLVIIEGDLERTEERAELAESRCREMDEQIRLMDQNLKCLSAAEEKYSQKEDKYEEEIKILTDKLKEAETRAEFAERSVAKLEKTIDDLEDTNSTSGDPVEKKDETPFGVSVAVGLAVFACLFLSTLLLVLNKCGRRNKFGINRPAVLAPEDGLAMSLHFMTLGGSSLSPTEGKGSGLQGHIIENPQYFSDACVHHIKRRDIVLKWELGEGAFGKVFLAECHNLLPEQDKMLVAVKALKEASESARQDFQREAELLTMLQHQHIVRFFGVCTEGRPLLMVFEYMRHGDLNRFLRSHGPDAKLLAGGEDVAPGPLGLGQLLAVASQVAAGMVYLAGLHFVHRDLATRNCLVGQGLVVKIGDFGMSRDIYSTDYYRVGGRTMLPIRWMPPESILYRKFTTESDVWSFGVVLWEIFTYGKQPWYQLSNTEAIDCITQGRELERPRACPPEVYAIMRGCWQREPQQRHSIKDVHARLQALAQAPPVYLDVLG

T1 sequence (P04629 510-796 G595R limits assumed, one chain of several): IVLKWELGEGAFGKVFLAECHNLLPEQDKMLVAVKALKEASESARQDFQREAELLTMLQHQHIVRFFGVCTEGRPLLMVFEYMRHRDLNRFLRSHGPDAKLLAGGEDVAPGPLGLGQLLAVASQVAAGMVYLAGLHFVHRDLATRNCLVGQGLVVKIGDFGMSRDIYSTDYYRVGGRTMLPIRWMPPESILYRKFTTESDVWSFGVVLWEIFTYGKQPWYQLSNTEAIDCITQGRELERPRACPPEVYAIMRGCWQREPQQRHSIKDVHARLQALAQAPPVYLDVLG

Animal weights, KM-12 xenograft study ([4]; merestinib 24 mg/kg once daily, crizotinib 25 mg/kg twice daily, measured twice weekly, relative to vehicle) | p-NTRK1, mutant G595R TPM3-NTRK1, in words [7] | p-NTRK1 (Y490) signaling, wild-type TPM3-NTRK1, in words [9] | SMILES | p-eIF4E reduction, in words [1] | p-ERK inhibition (in words) [2] | % Necrosis/Mucin, individual animal [3] | % Necrosis/Mucin, mean per group [3] [%] | T/C, EL1989 PDX [3] [%] | T/C, KM-12 xenograft ([4]; mouse, in vivo) [%] | IC50 (KM-12 cells [5]) [nM] | IC50 (KM-12 cells [6]) [nM] | IC50 (MO-91 cells (ETV6-NTRK3)) [nM] | Effect on MO-91 xenograft tumors (MO-91 xenograft tumors) | p-eIF4E reduction (MKNK1/2 inhibition, in words) [8] | Concentration giving total inhibition of phosphorylation of MAPK 42/44 (ERK) ([2]; KM-12 cells, 2 hours, 3.9-1000 nM, western blot) [nM] | p-eIF4E reduction (MKNK1/2 inhibition, in words) ([8]; KM-12 cells, 2 hours, western blot, b12: 100, 500, 1000 nM)
no significant weight alteration | little effect | reduced | C[C@@H](Oc1cc(-c2cnn(C3CCNCC3)c2)cnc1N)c1c(Cl)ccc(F)c1Cl [Crizotinib, reference compound] | did not show reduction in p-eIF4E | dose dependent inhibition | 80% (2×) and 20% and 95% and 30% and 10% | 50 | 13.5 | 39.5 | 276 | 92 | 10 | induced tumor regression | small reduction of p-eIF4E | – | –
– | – | – | CN1CCN(c2ccc(C(=O)Nc3n[nH]c4ccc(Cc5cc(F)cc(F)c5)cc34)c(NC3CCOCC3)c2)CC1 [Entrectinib, reference compound] | – | – | – | – | – | – | – | – | – | – | small reduction of p-eIF4E | – | –
– | partial p-NTRK1 inhibition | reduced | O=C(Nc1cnn2ccc(N3CCC[C@@H]3c3cc(F)ccc3F)nc12)N1CC[C@H](O)C1 [Larotrectinib, reference compound] | – | – | – | – | – | – | – | – | – | – | – | 15.6 | small reduction of p-eIF4E

— article PMC5862616 (Oncotarget, 2018)
